1 compound from paper PMC9490060, “Synthesis and evaluation of anticancer activity of quillaic acid derivatives: A cell cycle arrest and apoptosis inducer through NF-κB and MAPK pathways” (Frontiers in Chemistry, 2022) can be followed below.

One data set concerns p38. The data set can be described thus: Western blot, MAPK signaling pathway: p38. The note with it: HCT116, 10 μM, 24 h. Format: cell-based, human. The text has this:
Extracellular signal-regulated kinases are the most closely related MAPK. MAPK, a family of serine/threonine protein kinases, is also an important transmitter of signaling from the cell surface to the nucleus, and it is involved in the regulation of many physiological processes, including apoptosis ([Bian et al., 2021]). The MAPK pathway has been implicated in regulating tumor angiogenesis, proliferation, metastasis and invasion ([Ko et al., 2017]). MAPK family is mainly composed of ERK, p38 and JNK subfamily.
FIGURE 9 Effect of compound E on […] in HCT116 cells. Cells were pretreated with the various concentrations of compound E (2.5, 5 and 10 μM) for 24 h. The expression of phospho-ERK, ERK, phospho-JNK, JNK, phospho-p38, p38 were analyzed by Western blot. ***p < 0.001, **p < 0.01, *p < 0.05 vs. control group. The error bars represent the mean ± SD for three independent experiments.
(§1) HCT116 cells were cultured with different concentrations of compound E for 24 h. Then, the floating cells were collected and washed twice with ice-cold PBS. Add cold RIPA buffer. After the cells were lysed on ice for 20 min, the lysate was centrifuged at 12,000 rpm for 15 min at 4°C. The BCA method determines the protein concentration. […] The protein is detected by electrochemiluminescence (Bio-Rad, CA, United State).

The next data set has as its system IκB. The data set can be described thus: Western blot, NF-κB signaling pathway: IκB. The class given is cell-based, human. To be noted: HCT116, 2.5, 5 and 10 μM, 24 h.
From the text: The NF-κB pathway plays an important role in a variety of cellular functions, including cell growth, apoptosis, and tumorigenesis ([Hwang et al., 2012]). Interfering with NF-κB signaling can inhibit tumor cell proliferation and metastasis ([Yenmis et al., 2021]). Therefore, NF-κB inhibitors are considered as potential anticancer drugs ([Wang et al., 2017]).
FIGURE 8 Effect of compound E on NF-κB signaling pathway in HCT116 cells. Cells were pretreated with the various concentrations of compound E (2.5, 5 and 10 μM) for 24 h. The expression of phospho-NF-κB p65, NF-κB p65, phospho-IκB, IκB were analyzed by Western blot. ***p < 0.001, **p < 0.01, *p < 0.05 vs. control group. The error bars represent the mean ± SD for three independent experiments.
as §1, with “concentration. Separated by SDS/PAGE electrophoresis and transferred to a nitrocellulose filter membrane for Western blot analysis. The membrane was blocked with PBS containing 5% skim milk at room temperature for 2 h.” for “concentration.”
For orientation: In western blotting, separated proteins are transferred to a membrane and probed.

The test system of another data set is Bax. The data set can be described thus: Western blot, Bax expression. Format: cell-based, human. To be noted: HCT116, 10 μM, 24 h. As to the method: The Bcl-2 protein family (including the anti-apoptotic protein Bcl-2 and the pro-apoptotic protein Bax) is a group of key apoptotic proteins that play an important role in the regulation of apoptosis ([Han et al., 2013]; [Zhang and Saghatelian, 2013]; [Zheng et al., 2021]). HCT116 cells were treated with different concentrations (2.5, 5, and 10 μM) of E to detect the expression of Bax and Bcl-2 proteins.
FIGURE 7 Effect of compound E on the levels of Bax, and Bcl-2 in HCT116 cells. Cells were pretreated with the various concentrations of compound E (2.5, 5 and 10 μM) for 24 h. The expression of Bax, and Bcl-2 were analyzed by Western blot. ***p < 0.001, **p < 0.01, *p < 0.05 vs. control group. The error bars represent the mean ± SD for three independent experiments.
as §1, with “concentration. Separated by SDS/PAGE electrophoresis and transferred to a nitrocellulose filter membrane for Western blot analysis. The membrane was blocked with PBS containing 5% skim milk at room temperature for 2 h.” for “concentration.”

Another data set deals with HCT116 cells. Description: Colony formation assay. The note with it: HCT116, 2.5, 5, 10 μM, 7 days. Format: cell-based, human. The procedure:
The colony-forming cell assay was used to determine the ability of cells to proliferate and differentiate into colonies and thereby to investigate the anti-proliferative efficacy of compound E ([Lei et al., 2015]).
FIGURE 3 Colony formation of HCT116 cells inhibited by compound E. (A) HCT116 cells were incubated with varying concentrations of E (0, 2.5, 5, 10 μM) and stained with crystal violet. (B) The micrographic differences between the colonies. Images were taken of stained single colonies observed under a microscope.
Exponentially growing HCT116 cells (600 cells per well) were plated on 6-well plates with Roswell Park Memorial Institute (RPMI) 1,640 medium containing 10% fetal bovine serum (FBS). After incubating for 12 h, replace with fresh medium. Then, the cells were treated with different concentrations of compound E (2.5, 5 and 10 μM) dissolved in DMSO. Some cells only use DMSO as a negative control. Then incubate for another 7 days. Finally, the cells were fixed with 95% ethanol for 25 min, stained with 0.1% crystal violet for 15 min at room temperature, and then washed with PBS until the […] were completely removed.

A short description of data set [1]: Stability under pharmacological experimental conditions (RPMI 1640 medium, liquid phase detection). Format: physicochemical. As to the method:
Experimental method: Samples A-E were prepared and detected by liquid phase. Details are as follows.
A: The purity of compound E was detected by liquid phase, and the peak time of compound E was judged.
B: Liquid detection RPMI 1640 medium
C: Compound E was dissolved in the RPMI 1640 medium and detected by liquid phase.
D: Compound E was dissolved in the RPMI 1640 medium and placed in the incubator for 24 hours before detection by liquid phase.
E: Compound E was dissolved in the RPMI 1640 medium and placed in the incubator for 48 hours before detection by liquid phase.

SMILES strings stand for the structures.

For `CC1(C)CC[C@]2(C(=O)OCCn3nnnc3-c3ccccc3)[C@H](O)C[C@]3(C)C(=CC[C@@H]4[C@@]5(C)CC[C@H](O)[C@@](C)(C=O)[C@@H]5CC[C@]43C)[C@@H]2C1` [Compound E, 2-(5-phenyl-1H-tetrazol-1-yl)ethyl (4aR,5R,6aS,6bR,8aR,9S,10S,12aR,12bR,14bS)-9-formyl-5,10-dihydroxy-2,2,6a,6b,9,12a-hexamethyl-1,3,4,5,6,6a,6b,7,8,8a,9,10,11,12,12a,12b,13,14b-octadecahydropicene-4a (2H)-carboxylate], the “phosphorylation level of p38” value with p38 was “down-regulated”. In the data set with IκB, the “phosphorylation and degradation of IκB” value is “inhibited the phosphorylation and degradation of IκB”. The “expression of Bax” value in the data set on Bax was “significantly increased”. In addition, the “colony formation (number and size of colonies)” value with HCT116 cells was “significantly decreased the number and size of colonies in a concentration-dependent manner”. Moreover, the “content of compound E (HPLC peak)” value in data set [1] (after 24 hours in incubator) is 20.495%; in data set [1] (after 48 hours in incubator), 19.557%; in data set [1] (check directly/0 hours) it was 20.461%. Also, in data set [1] (incubator, up to 48 hours), the “stability under pharmacological experimental conditions” value is reported as “high stability”.
